Patent US20020082273A1, “Agents for use in the treatment of alzheimer's disease” (priority 1998, published 2002)
One block for each compound: values may come before it.

Experiments:
Aβ1-42 [1] = target: T1, Aβ1-42 (Homo sapiens, UniProt P05067); assay: Effect of chelators on metal reduction by Aβ1-42; assay type: biochemical; details: chelator 200 μM, Fe^3+ 10 μM, ambient oxygenation
Aβ1-42 [2] = target: T1, Aβ1-42; assay: Effect of metal chelators on H2O2 production from Aβ1-42; assay type: biochemical; details: 1 μM Fe^3+; chelator 200 μM
[3] = in vivo; cited from earlier work
Alzheimer's disease = details: clinical administration; cited from earlier work
[4] = Metal reduction assay, Fe^3+ to Fe^2+; assay type: biochemical; details: 10 μM Fe^3+, PBS pH 7.4, 1 hr 37° C.
Method: (§1) The metal reduction assay was performed using a 96-well microtiter plate (Costar) based upon a modification of established protocols (Landers, J. W., et al., Amer. Clin. Path. 29:590 (1958); Landers, J. W., et al., Clinica Chimica Acta 3:329 (1958)). Polypeptides (10 μM) or Vitamin C (100 μM), metal ions (10 μM, Fe(NO3)3 or Cu(NO3)2), and reduced metal ion indicators, bathophenanthrolinedisulfonic acid (BP, for Fe^2+, Sigma, 200 μM) or bathocuproinedisulfonic acid (BC, for Cu^+, Sigma, 200 μM), were coincubated in phosphate buffered saline (PBS), pH 7.4, for 1 hr at 37° C. The metal ion solutions were prepared by direct dilution in the buffer from their aqueous stocks purchased from National Institute of Standards and Technology (NIST). Absorbances were then measured at 536 mn (Fe^2+-BP complex) and 483 nm (Cu^+-BC complex), respectively, using a 96-well plate reader (SPECTRAmax 250, Molecular Devices, CA). In control samples, both metal ion and indicator were present to determine the background buffer signal. As a further control, both metal ion and peptide were present in the absence of indicator to estimate the contribution of light scattering due to turbidity to the absorbance reading at these wavelengths. The net absorbances (ΔA) at 536 nm or 483 nm were obtained by deducting the absorbances from these controls from the absorbances generated by the peptide and metal in the presence of the respective indicator.
The concentrations of reduced metal ions (Fe^2+ or Cu^+) were quantified based on the formula: Fe^2+ or Cu^+ (˜M)=A*10^6/(L*M), where L is the measured equivalent vertical pathlength for a well of 300 μL volume as described in the instrument's specifications manual (0.856 cm for Fe^2+; 1.049 cm for Cu^+); M is the known molecular absorbance (M^−1 cm^−1) which is 7124 (for Fe^2+-BP complex) or 2762 (for Cu^+-BC complex).

[5] = H2O2 assay, production by Aβ peptides; assay type: biochemical; details: 1 μM Fe^3+, ambient O2, PBS pH 7.4, 1 hour 37° C.
[6] = Cu^2+-induced SDS-resistant polymerization of Aβ peptides, western blot image analysis; assay type: biochemical, human
Method: Following incubation (37° C.), aliquots of each reaction (2 ng peptide) were collected at 0 d, 1 d, 3 d and 5 d and western blotted using anti-Aβ monoclonal antibody 8E10 (FIG. 9). Migration of the molecular size markers are indicated (kDa). […] It should be noted that other means of visualizing and/or determining the presence or absence of polymerization other than western blot analysis may be used. Such other means include but are not limited to density sedimentation by centrifugation of the samples.
The generation of SDS-resistant Aβ polymers by metal ions was tested by incubating Cu^2+ (30 μM) or Zn^2+ (30 μM) at pH 6.6, 7.4 and 9.0 with Aβ1-40.
(0-30 μM) at pH 7.4 and 6.6 and the samples analyzed by Western blot and the signal quantitated using the Fluoro-S Image Analysis System (Bio-Rad, Hercules, Calif.) as previously described.

[7] = Metal reduction assay, Cu^2+ to Cu^+; assay type: biochemical; details: 10 μM Cu^2+, PBS pH 7.4, 1 hr 37° C.
Method: Aβ (10 μM in PBS, pH 7.4 or 6.8, as shown) was incubated for 30 minutes (37° C.) in the presence of Cu^2+10 μM ±Zn^2+ 10 μM). […] levels (n=3, ±SD) were assayed against a standard curve.
as §1, with “Polypeptides” for “The metal reduction assay was performed using a 96-well microtiter plate (Costar) based upon a modification of established protocols (Landers, J. W., et al., Amer. Clin. Path. 29:590 (1958); Landers, J. W., et al., Clinica Chimica Acta 3:329 (1958)). Polypeptides”, “Absorbances were then measured at 536 mn (Fe^2+-BP complex) and 483 nm (Cu^+-BC complex), respectively, using a 96-well plate reader (SPECTRAmax 250, Molecular Devices, CA).” left out

TBARS assay of OH. = assay type: biochemical; details: 10 μM peptide, 1 μM Fe^3+ or Cu^2+
Method: All data points are means ±SD, n=3.
The Thiobarbituric Acid-Reactive Substance (TBARS) assay for incubation mixtures with Fe^3+ or Cu^2+ was performed in a 96-well microtiter format modified from established protocols (Gutteridge et al. Biochim. Biophys. Acta 759: 38-41 (1983)). Aβ peptide species (10 μM) or Vitamin C (100 μM), were incubated with Fe^3+ or Cu^2+ (1 μM) and deoxyribose (7.5 mM, Sigma) in PBS, pH 7.4. Following incubation (37° C., 1 hour), glacial (17 M) acetic acid and 2-thiobarburic acid (1%, w/v in 0.05 M NaOH, Sigma) were added and heated (100° C., 10 min). The final mixtures were placed on ice for 1-3 minutes before absorbances at 532 nm were measured. The net absorbance change for each sample were obtained by deducting the absorbance from a control sample consisting of identical chemical components except for the Vitamin C or Aβ peptides.

T1 sequence (P05067 672-713 limits assumed): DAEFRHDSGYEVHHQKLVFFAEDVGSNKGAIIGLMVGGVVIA

- effect on production of Fe^2+ by Aβ1-42 (Aβ1-42 [1]): nearly halved
- effect on H2O2 formation by Aβ1-42 (Aβ1-42 [2]): had no effect on H2O2 formation
Compound: CC(=O)N(O)CCCCCNC(=O)CCC(=O)N(O)CCCCCNC(=O)CCC(=O)N(O)CCCCCN [DFO]
- brain / blood-brain barrier penetration [3]: does not easily penetrate the blood-brain barrier
- effect on progression of AD (Alzheimer's disease): effective in preventing the progression of AD

Compound: Aβ1-42: synthetic human Aβ peptide, residues 1-42
- reduction of available Fe^3+ [4]: 50%
- H2O2 generated [5]: 10 µM
- SDS-resistant polymers: Monomer ([6]; pH 6.6, [Cu^2+] 0): 61.0
- SDS-resistant polymers: Pentamer ([6]; pH 6.6, [Cu^2+] 0): 3.8
- SDS-resistant polymers: Tetramer ([6]; pH 6.6, [Cu^2+] 0): 8.6
- SDS-resistant polymers: Trimer ([6]; pH 6.6, [Cu^2+] 0): 27.3
- SDS-resistant polymers: Monomer ([6]; pH 6.6, [Cu^2+] 0.5): 52.1
- SDS-resistant polymers: Tetramer ([6]; pH 6.6, [Cu^2+] 0.5): 12.0
- SDS-resistant polymers: Trimer ([6]; pH 6.6, [Cu^2+] 0.5): 33.8
- SDS-resistant polymers: Monomer ([6]; pH 6.6, [Cu^2+] 5): 59.6
- SDS-resistant polymers: Tetramer ([6]; pH 6.6, [Cu^2+] 5): 7.1
- SDS-resistant polymers: Monomer ([6]; pH 6.6, [Cu^2+] 10): 52.3
- SDS-resistant polymers: Pentamer ([6]; pH 6.6, [Cu^2+] 10): 2.2
- SDS-resistant polymers: Tetramer ([6]; pH 6.6, [Cu^2+] 10): 13.6
- SDS-resistant polymers: Monomer ([6]; pH 7.4, [Cu^2+] 0): 76.61
- SDS-resistant polymers: Pentamer ([6]; pH 7.4, [Cu^2+] 0): 1.9
- SDS-resistant polymers: Tetramer ([6]; pH 7.4, [Cu^2+] 0): 5.5
- SDS-resistant polymers: Trimer ([6]; pH 7.4, [Cu^2+] 0): 16.0
- SDS-resistant polymers: Monomer ([6]; pH 7.4, [Cu^2+] 0.5): 70.7
- SDS-resistant polymers: Pentamer ([6]; pH 7.4, [Cu^2+] 0.5): 2.5
- SDS-resistant polymers: Tetramer ([6]; pH 7.4, [Cu^2+] 0.5): 6.2
- SDS-resistant polymers: Trimer ([6]; pH 7.4, [Cu^2+] 0.5): 20.5
- SDS-resistant polymers: Monomer ([6]; pH 7.4, [Cu^2+] 1): 64.9
- SDS-resistant polymers: Pentamer ([6]; pH 7.4, [Cu^2+] 1): 4.0
- SDS-resistant polymers: Tetramer ([6]; pH 7.4, [Cu^2+] 1): 7.4
- SDS-resistant polymers: Trimer ([6]; pH 7.4, [Cu^2+] 1): 23.6
- SDS-resistant polymers: Monomer ([6]; pH 7.4, [Cu^2+] 5): 56.1
- SDS-resistant polymers: Pentamer ([6]; pH 7.4, [Cu^2+] 5): 4.1
- SDS-resistant polymers: Tetramer ([6]; pH 7.4, [Cu^2+] 5): 8.7
- SDS-resistant polymers: Monomer ([6]; pH 7.4, [Cu^2+] 10): 55.1
- SDS-resistant polymers: Pentamer ([6]; pH 7.4, [Cu^2+] 10): 4.3
- SDS-resistant polymers: Tetramer ([6]; pH 7.4, [Cu^2+] 10): 10.3
- SDS-resistant polymers: Monomer ([6]; pH 7.4, [Cu^2+] 30): 57.1
- SDS-resistant polymers: Pentamer ([6]; pH 7.4, [Cu^2+] 30): 4.2
- SDS-resistant polymers: Tetramer ([6]; pH 7.4, [Cu^2+] 30): 8.3

Compound: rat Aβ1-40: rat Aβ with substitutions R5→G, Y10→F, H13→R compared to human Aβ (DAEFGHDSGFEVRHQKLVFFAEDVGSNKGAIIGLMVGGVV; Amyloid-beta protein 40; UniProt P08592 672-711, looked up)
- reduction of available Cu^2+ [7]: reduced no Cu^2+
- reduction of available Fe^3+ [4]: did not significantly facilitate the reduction of Fe^3+
- OH. generation (TBARS) (TBARS assay of OH.): did not generate OH

Compound: vitamin E
- effect on progression of AD (Alzheimer's disease): delay the progression of clinical AD
